The record followed here is patent US5000959A, “Liposome composition and production thereof” (Takeda Chemical Industries, Ltd., priority 1989, dated 1991).

A short description of this series: Phase transition temperature (differential thermal analysis). The class given is physicochemical. The following applies: single phospholipid. As to the method:
Phase transition temperature was determined by differential thermal analysis.

Regarding “palmitoylstearoylphosphitadylcholine [PSPC]”, the “phase transition temperature (found value) of phospholipid” value was 47.4 °C.
Next, “steroylpalmitoylphosphitdylcholine [SPPC]”: 44.0 °C.
